Converted amounts (≈) assume the structure as drawn.
Experiments:
[1] = The cytotoxic activity was evaluated in MDBK cells; type: functional; settings: Bos taurus
[2] = Tested for activity against A/WSN/33 influenza strain-induced toxicity in MDBK cells by using cell protection assay; Not active; type: functional, organism-based
[3] = Tested for activity against A/WSN/33 influenza strain-induced toxicity in MDBK cells by using cell protection assay; type: functional, organism-based
[4] = The compound was tested for activity against A/WSN/33 influenza strain-induced toxicity in MDBK cells by using cell protection assay; Not active at 50 ug/mL; type: functional, cell-based, Bos taurus

Row | Structure (SMILES) | CC50 [1] | EC50 [2] | EC50 [3] | EC50 [4]
1 | Cc1ccc(O)c(C(=O)NCCCN2CC(C)C[C@@H]3CCCC[C@@H]32)c1 (some centres undefined) | 9.5 µg/mL (≈ 27.6 µM) | Not Active | – | –
2 | C[C@@H]1CCC[C@H](C)N1CCCCNC(=O)c1cc(Cl)ccc1O | 100 µg/mL (≈ 295 µM) | – | 1 µg/mL (≈ 2.95 µM) | –
3 | Cc1ccc(O)c(C(=O)NCCCN2CCC[C@@H]3CCCC[C@@H]32)c1 | > 100 µg/mL | – | 0.65 µg/mL (≈ 1.97 µM) | –
4 | Cc1ccc(O)c(C(=O)NCCCN2CCC(C)[C@@H]3CCCC[C@@H]32)c1 (some centres undefined) | 100 µg/mL (≈ 290 µM) | Not Active | – | –
5 | Cc1ccc(O)c(C(=O)NCCCN2[C@@H](C)CC[C@@H]3CCCC[C@@H]32)c1 | > 100 µg/mL | – | 6 µg/mL (≈ 17.4 µM) | –
6 | CCC(C)N1CCC(NC(=O)c2cc(C)ccc2O)CC1 (centres undefined) | 100 µg/mL (≈ 344 µM) | – | – | Not Active
7 | CN1C2CCC1CC(NC(=O)c1cc(Cl)ccc1O)C2 (centres undefined) | 100 µg/mL (≈ 339 µM) | Not Active | – | –
8 | Cc1ccc(O)c(C(=O)NCCCN2C(C)CC[C@@H]3CCCC[C@H]32)c1 (single isomer, unassigned) | 30 µg/mL (≈ 87.1 µM) | – | 1.5 µg/mL (≈ 4.35 µM) | –
9 | O=C(NCCCN1CCC[C@@H]2CCCC[C@@H]21)c1cc(Cl)ccc1O | 43 µg/mL (≈ 123 µM) | – | 1.4 µg/mL (≈ 3.99 µM) | –
10 | Cc1ccc(O)c(C(=O)NCCCN2C(C(C)C)CC[C@@H]3CCCC[C@@H]32)c1 (some centres undefined) | 80 µg/mL (≈ 215 µM) | – | 0.25 µg/mL (≈ 0.671 µM) | –
11 | Cc1ccc(O)c(C(=O)NCCCCN2C(C)CC[C@@H]3CCCC[C@@H]32)c1 (some centres undefined) | 90 µg/mL (≈ 251 µM) | Not Active | – | –
12 | Cc1ccc(O)c(C(=O)NCCCN2[C@H](C)CCC[C@@H]2C)c1 | > 100 µg/mL | – | 1.8 µg/mL (≈ 5.91 µM) | –
13 | Cc1ccc(O)c(C(=O)NCCCN(C(C)C)C(C)C)c1 | > 100 µg/mL | – | 0.9 µg/mL (≈ 3.08 µM) | –
14 | Cc1ccc(O)c(C(=O)NCCCCN2[C@H](C)CCC[C@@H]2C)c1 | > 100 µg/mL | – | 0.7 µg/mL (≈ 2.2 µM) | –
15 | Cc1ccc(O)c(C(=O)NCCCN2[C@H](C)CC[C@@H]3CCCC[C@@H]32)c1 | 35 µg/mL (≈ 102 µM) | – | 0.19 µg/mL (≈ 0.552 µM) | –
16 | CC1CC[C@@H]2CCCC[C@@H]2N1CCCNC(=O)c1cc(Cl)ccc1O (some centres undefined) | 40 µg/mL (≈ 110 µM) | – | 0.09 µg/mL (≈ 0.247 µM) | –
17 | C[C@@H]1CCC[C@H](C)N1CCCNC(=O)c1cc(Cl)ccc1O | 30 µg/mL (≈ 92.3 µM) | – | 4.5 µg/mL (≈ 13.9 µM) | –
18 | Cc1ccc(O)c(C(=O)NC2CC3CCC(C2)N3C)c1 (centres undefined) | 100 µg/mL (≈ 364 µM) | Not Active | – | –
19 | Cc1ccc(O)c(C(=O)NCCCCN2CCC[C@@H]3CCCC[C@@H]32)c1 | 30 µg/mL (≈ 87.1 µM) | Not Active | – | –
20 | O=C(NCCCN1CCC[C@@H]2CCCC[C@H]21)c1cc(Cl)ccc1O | 45 µg/mL (≈ 128 µM) | – | 1.4 µg/mL (≈ 3.99 µM) | –
21 | Cc1ccc(O)c(C(=O)NCCCN2CCC[C@@H]3CCCC[C@H]32)c1 | 60 µg/mL (≈ 182 µM) | – | 0.35 µg/mL (≈ 1.06 µM) | –
22 | C[C@@H]1CCC[C@@H]2C[C@@H](NC(=O)c3cc(Cl)ccc3O)CCN21 | > 200 µg/mL | – | 0.8 µg/mL (≈ 2.48 µM) | –
